# Experimental data: article PMC11167047 (Cell Death Discovery, 2024)
# Assays:
# Experiment in all cases: kinome screen (33PanQinase)
# Format in all cases: biochemical
# MKK6 SDTD = molecular target: T1, MKK6 SDTD (Homo sapiens, UniProt P52564, S207D/T211D)
# T1 construct: purchased Reaction Biology Europe GmbH (formerly ProQinase)
# T1 sequence (P52564 1-334 S207D/T211D): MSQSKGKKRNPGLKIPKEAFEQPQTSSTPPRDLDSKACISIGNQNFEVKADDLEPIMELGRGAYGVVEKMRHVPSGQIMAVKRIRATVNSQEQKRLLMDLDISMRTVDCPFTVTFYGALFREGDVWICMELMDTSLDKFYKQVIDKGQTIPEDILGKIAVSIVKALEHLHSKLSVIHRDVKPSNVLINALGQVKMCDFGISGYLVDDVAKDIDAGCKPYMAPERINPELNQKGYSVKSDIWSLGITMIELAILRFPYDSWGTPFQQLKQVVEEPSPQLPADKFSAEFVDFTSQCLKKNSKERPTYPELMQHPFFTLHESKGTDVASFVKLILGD
# Experimental: (§1) The Kinome Screening was performed by Reaction Biology Europe GmbH (http://reactionbiology.com; Freiburg i. Br., Germany).
# ROCK2 = molecular target: T2, ROCK2 (Homo sapiens, UniProt O75116)
# T2 construct: purchased Reaction Biology Europe GmbH (formerly ProQinase)
# T2 sequence (O75116 whole entry): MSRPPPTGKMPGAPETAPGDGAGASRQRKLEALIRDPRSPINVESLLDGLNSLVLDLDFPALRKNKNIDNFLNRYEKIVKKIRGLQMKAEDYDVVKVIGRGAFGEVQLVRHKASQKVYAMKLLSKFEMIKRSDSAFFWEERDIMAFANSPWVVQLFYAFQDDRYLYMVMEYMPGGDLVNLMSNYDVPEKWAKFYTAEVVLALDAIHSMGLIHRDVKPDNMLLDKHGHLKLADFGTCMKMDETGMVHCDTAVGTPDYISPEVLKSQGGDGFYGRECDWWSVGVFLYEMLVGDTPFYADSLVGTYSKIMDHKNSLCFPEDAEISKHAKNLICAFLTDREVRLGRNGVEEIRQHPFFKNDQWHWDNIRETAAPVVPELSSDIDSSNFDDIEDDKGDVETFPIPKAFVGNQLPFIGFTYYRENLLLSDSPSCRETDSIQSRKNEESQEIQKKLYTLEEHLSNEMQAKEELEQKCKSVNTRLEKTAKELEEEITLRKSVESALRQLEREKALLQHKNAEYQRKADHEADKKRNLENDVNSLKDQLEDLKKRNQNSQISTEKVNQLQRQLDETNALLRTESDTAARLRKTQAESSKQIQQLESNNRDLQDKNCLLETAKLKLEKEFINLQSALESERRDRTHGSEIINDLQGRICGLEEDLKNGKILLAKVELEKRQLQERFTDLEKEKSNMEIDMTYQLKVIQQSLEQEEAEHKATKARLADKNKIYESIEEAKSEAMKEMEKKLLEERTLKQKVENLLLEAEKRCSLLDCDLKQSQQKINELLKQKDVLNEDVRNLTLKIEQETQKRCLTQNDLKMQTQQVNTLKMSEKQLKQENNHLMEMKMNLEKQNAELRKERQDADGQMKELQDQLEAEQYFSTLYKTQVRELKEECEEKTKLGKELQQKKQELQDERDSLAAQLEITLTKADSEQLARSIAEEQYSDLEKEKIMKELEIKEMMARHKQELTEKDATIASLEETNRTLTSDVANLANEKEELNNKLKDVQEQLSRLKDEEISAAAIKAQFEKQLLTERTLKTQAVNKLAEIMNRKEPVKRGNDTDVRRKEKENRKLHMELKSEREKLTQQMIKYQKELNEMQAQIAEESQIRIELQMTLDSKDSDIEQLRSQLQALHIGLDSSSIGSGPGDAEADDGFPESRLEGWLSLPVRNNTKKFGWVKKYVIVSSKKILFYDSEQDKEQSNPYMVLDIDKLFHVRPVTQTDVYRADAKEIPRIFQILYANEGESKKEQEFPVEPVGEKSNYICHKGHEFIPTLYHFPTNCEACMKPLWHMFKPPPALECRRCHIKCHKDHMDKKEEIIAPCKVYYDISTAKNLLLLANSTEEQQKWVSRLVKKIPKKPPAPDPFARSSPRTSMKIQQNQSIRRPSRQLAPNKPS
# Experimental: as §1
# DYRK1A = molecular target: T3, DYRK1A (Homo sapiens, UniProt Q13627)
# T3 construct: purchased Reaction Biology Europe GmbH (formerly ProQinase)
# Experimental: as §1
# RIPK4 = molecular target: T4, RIPK4 (Homo sapiens, UniProt P57078)
# T4 construct: purchased Reaction Biology Europe GmbH (formerly ProQinase)
# T4 sequence (P57078 1-832): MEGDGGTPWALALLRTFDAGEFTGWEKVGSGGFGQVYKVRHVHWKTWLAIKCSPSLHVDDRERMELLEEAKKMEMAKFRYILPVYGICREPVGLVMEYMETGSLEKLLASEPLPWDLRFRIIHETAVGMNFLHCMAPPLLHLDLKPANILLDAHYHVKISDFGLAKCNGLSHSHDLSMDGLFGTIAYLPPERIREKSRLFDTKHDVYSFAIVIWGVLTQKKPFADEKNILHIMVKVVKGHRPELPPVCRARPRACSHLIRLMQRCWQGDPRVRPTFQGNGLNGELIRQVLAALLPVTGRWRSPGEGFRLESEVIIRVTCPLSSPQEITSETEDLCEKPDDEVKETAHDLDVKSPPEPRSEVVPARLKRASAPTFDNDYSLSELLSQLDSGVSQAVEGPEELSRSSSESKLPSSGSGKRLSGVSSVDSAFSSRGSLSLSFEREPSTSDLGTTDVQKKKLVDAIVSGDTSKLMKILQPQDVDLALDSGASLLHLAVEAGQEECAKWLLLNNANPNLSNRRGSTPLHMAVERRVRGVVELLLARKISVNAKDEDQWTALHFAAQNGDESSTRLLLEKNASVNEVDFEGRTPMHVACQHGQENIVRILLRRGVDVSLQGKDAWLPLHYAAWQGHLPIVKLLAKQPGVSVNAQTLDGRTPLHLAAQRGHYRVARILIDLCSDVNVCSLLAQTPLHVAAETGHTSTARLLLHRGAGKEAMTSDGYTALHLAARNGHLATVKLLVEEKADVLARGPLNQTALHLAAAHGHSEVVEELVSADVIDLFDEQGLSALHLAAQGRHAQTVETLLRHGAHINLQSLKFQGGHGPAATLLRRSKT
# Experimental: as §1
# PHKG2 = molecular target: T5, PHKG2 (Homo sapiens, UniProt P15735)
# T5 construct: purchased Reaction Biology Europe GmbH (formerly ProQinase)
# T5 sequence (P15735 1-406): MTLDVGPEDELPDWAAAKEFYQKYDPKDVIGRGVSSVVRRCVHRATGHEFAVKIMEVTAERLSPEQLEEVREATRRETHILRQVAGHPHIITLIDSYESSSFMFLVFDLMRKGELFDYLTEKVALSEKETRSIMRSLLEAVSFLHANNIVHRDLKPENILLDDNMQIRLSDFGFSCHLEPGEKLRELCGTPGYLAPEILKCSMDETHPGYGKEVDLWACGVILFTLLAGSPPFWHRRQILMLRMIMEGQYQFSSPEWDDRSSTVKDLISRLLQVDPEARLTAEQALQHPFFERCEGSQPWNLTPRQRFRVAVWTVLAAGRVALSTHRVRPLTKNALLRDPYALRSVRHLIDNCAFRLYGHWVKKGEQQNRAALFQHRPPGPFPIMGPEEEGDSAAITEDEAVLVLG
# Experimental: as §1
# CDK2/CycD1 = molecular target: T6, CDK2/CycD1 (Homo sapiens, UniProt P24941)
# T6 construct: purchased Reaction Biology Europe GmbH (formerly ProQinase)
# Experimental: as §1
# ACVR2A = molecular target: T7, ACVR2A (Homo sapiens, UniProt P27037)
# T7 construct: purchased Reaction Biology Europe GmbH (formerly ProQinase)
# T7 sequence (P27037 20-513): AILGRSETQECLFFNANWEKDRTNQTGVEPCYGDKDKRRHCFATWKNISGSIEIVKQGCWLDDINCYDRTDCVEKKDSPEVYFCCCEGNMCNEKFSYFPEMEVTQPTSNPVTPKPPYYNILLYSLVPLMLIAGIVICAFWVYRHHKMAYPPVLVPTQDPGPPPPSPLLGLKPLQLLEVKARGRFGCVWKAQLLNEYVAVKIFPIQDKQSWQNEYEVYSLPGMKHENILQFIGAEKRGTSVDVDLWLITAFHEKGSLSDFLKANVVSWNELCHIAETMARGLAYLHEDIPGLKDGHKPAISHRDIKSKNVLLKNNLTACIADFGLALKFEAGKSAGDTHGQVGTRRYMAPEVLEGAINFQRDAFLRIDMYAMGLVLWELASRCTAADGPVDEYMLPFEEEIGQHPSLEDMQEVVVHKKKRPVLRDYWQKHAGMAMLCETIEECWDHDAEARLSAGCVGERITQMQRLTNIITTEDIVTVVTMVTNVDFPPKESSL
# Experimental: as §1
# MKNK2 = molecular target: T8, MKNK2 (Homo sapiens, UniProt Q9HBH9)
# T8 construct: purchased Reaction Biology Europe GmbH (formerly ProQinase)
# T8 sequence (Q9HBH9 whole entry): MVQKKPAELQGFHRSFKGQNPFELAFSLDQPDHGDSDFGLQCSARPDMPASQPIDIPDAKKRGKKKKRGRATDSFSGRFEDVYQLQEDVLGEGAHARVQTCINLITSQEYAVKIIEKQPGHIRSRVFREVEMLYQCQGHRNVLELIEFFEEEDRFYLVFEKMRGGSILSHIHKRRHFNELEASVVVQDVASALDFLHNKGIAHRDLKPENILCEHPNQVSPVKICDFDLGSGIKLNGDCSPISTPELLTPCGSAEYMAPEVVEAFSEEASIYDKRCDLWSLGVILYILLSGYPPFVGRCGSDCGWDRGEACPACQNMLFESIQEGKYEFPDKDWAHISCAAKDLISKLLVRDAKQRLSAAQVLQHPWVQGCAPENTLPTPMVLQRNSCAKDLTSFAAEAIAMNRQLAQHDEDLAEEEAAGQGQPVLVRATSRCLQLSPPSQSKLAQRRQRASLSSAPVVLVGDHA
# Experimental: as §1
# SRPK1 = molecular target: T9, SRPK1 (Homo sapiens, UniProt Q96SB4)
# T9 construct: purchased Reaction Biology Europe GmbH (formerly ProQinase)
# Experimental: as §1
# TIE2 = molecular target: T10, TIE2 (Homo sapiens, UniProt Q02763)
# T10 construct: purchased Reaction Biology Europe GmbH (formerly ProQinase)
# Experimental: as §1
# CDK4/CycD1 = molecular target: T11, CDK4/CycD1 (Homo sapiens, UniProt P11802)
# T11 construct: purchased Reaction Biology Europe GmbH (formerly ProQinase)
# Experimental: as §1
# BMPR1B = molecular target: T12, BMPR1B (Homo sapiens, UniProt O00238)
# T12 construct: purchased Reaction Biology Europe GmbH (formerly ProQinase)
# T12 sequence (O00238 14-502): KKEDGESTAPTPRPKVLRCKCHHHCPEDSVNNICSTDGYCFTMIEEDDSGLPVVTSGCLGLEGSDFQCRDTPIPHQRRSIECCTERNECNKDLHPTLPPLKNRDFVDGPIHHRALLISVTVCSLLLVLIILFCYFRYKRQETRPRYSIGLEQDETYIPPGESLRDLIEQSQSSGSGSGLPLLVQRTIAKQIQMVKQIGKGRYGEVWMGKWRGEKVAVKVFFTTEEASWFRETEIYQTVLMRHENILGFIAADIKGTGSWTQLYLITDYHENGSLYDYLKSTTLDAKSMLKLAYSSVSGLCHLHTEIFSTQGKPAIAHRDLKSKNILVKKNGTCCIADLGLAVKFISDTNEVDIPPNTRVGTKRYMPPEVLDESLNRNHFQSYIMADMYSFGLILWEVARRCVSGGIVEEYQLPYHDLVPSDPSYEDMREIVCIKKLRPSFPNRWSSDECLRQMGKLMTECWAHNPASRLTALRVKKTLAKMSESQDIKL
# Experimental: as §1
# FGFR1 = molecular target: T13, FGFR1 (Homo sapiens, UniProt P11362)
# T13 construct: purchased Reaction Biology Europe GmbH (formerly ProQinase)
# Experimental: as §1
# EGFR = molecular target: T14, EGFR (Homo sapiens, UniProt P00533)
# T14 construct: purchased Reaction Biology Europe GmbH (formerly ProQinase)
# Experimental: as §1
# LIMK1 = molecular target: T15, LIMK1 (Homo sapiens, UniProt P53667)
# T15 construct: purchased Reaction Biology Europe GmbH (formerly ProQinase)
# T15 sequence (P53667 whole entry): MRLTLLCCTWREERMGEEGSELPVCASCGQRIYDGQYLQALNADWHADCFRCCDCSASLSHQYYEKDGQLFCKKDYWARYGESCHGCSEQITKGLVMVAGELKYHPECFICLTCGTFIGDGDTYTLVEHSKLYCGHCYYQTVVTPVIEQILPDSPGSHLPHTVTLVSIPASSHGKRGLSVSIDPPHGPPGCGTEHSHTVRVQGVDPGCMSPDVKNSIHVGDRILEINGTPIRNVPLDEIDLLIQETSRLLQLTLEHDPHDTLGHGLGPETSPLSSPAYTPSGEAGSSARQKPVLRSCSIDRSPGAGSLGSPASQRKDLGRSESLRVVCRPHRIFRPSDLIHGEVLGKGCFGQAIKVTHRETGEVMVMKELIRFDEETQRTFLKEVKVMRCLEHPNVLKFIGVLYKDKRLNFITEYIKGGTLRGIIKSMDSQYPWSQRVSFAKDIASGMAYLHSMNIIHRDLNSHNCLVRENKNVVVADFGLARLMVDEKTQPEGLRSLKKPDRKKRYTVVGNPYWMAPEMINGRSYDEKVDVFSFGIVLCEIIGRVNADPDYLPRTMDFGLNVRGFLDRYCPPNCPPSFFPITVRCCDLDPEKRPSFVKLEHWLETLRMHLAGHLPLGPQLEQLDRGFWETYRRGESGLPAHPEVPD
# Experimental: as §1
# SRC = molecular target: T16, SRC (Homo sapiens, UniProt P12931)
# T16 construct: purchased Reaction Biology Europe GmbH (formerly ProQinase)
# T16 sequence (P12931 whole entry): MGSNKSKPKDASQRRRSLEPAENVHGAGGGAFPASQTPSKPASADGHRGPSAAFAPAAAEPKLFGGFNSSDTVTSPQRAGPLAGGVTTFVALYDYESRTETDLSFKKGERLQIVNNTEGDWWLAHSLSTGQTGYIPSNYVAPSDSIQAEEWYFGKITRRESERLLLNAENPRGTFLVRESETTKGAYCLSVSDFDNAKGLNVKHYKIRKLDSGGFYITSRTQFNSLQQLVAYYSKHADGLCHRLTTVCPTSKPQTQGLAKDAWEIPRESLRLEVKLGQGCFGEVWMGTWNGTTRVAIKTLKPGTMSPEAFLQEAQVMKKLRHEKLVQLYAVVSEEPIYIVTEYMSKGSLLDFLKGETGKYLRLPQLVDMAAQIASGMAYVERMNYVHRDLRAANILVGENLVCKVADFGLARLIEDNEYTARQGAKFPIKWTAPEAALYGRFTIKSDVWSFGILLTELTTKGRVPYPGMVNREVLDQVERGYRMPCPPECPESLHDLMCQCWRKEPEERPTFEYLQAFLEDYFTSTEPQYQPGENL
# Experimental: as §1
# CDK1/CycB1 = molecular target: T17, CDK1/CycB1 (Homo sapiens, UniProt P06493)
# T17 construct: purchased Reaction Biology Europe GmbH (formerly ProQinase)
# T17 sequence (P06493 whole entry): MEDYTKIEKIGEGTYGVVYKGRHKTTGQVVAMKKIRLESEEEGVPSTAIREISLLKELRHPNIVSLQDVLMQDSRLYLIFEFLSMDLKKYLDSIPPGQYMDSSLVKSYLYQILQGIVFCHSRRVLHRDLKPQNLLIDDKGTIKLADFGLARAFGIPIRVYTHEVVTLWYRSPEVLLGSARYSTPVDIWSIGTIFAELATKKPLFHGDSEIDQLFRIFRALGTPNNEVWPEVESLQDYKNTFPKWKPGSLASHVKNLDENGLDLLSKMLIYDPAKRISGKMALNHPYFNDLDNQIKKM
# T17 sequence (P14635 whole entry partner): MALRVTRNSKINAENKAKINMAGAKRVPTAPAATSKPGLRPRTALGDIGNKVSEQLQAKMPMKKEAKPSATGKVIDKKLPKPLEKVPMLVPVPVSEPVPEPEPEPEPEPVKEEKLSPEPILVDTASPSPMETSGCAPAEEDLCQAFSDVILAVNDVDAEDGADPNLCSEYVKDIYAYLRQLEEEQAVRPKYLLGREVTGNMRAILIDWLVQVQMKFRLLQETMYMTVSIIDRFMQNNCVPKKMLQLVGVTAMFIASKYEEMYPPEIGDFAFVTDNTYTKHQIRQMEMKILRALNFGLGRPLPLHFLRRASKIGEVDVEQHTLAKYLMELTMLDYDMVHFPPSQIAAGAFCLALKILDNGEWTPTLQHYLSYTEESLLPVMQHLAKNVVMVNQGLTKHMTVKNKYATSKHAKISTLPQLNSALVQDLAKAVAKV
# Experimental: as §1
# CDK18/CycY = molecular target: T18, CDK18/CycY (Homo sapiens, UniProt Q07002)
# T18 construct: purchased Reaction Biology Europe GmbH (formerly ProQinase)
# Experimental: as §1
SMILES,residual kinase activity (MKK6 SDTD; 0.3 µM),residual kinase activity (ROCK2; 0.3 µM),residual kinase activity (DYRK1A; 0.3 µM),residual kinase activity (RIPK4; 0.3 µM),residual kinase activity (PHKG2; 0.3 µM),residual kinase activity (CDK2/CycD1; 0.3 µM),residual kinase activity (ACVR2A; 0.3 µM),residual kinase activity (MKNK2; 0.3 µM),residual kinase activity (SRPK1; 0.3 µM),residual kinase activity (TIE2; 0.3 µM),residual kinase activity (CDK4/CycD1; 0.3 µM),residual kinase activity (BMPR1B; 0.3 µM),residual kinase activity (FGFR1; 0.3 µM),residual kinase activity (EGFR; 0.3 µM),residual kinase activity (LIMK1; 0.3 µM),residual kinase activity (SRC; 0.3 µM),residual kinase activity (CDK1/CycB1; 0.3 µM),residual kinase activity (CDK18/CycY; 0.3 µM),also measured
c1ccc(CNc2cc(-c3c[nH]c4ncccc34)ccn2)cc1 [meriolin 36],63 % of control,1 % of control,7 % of control,88 % of control,52 % of control,6 % of control,94 % of control,16 % of control,110 % of control,113 % of control,24 % of control,75 % of control,56 % of control,107 % of control,9 % of control,88 % of control,4 % of control,6 % of control,residual kinase activity (MKK6 SDTD; 3 µM): 30 % of control; residual kinase activity (ROCK2; 3 µM): 0 % of control; residual kinase activity (DYRK1A; 3 µM): 0 % of control; residual kinase activity (RIPK4; 3 µM): 45 % of control; residual kinase activity (PHKG2; 3 µM): 23 % of control; residual kinase activity (CDK2/CycD1; 3 µM): 5 % of control; residual kinase activity (ACVR2A; 3 µM): 47 % of control; residual kinase activity (MKNK2; 3 µM): 3 % of control; residual kinase activity (SRPK1; 3 µM): 70 % of control; residual kinase activity (TIE2; 3 µM): 65 % of control; residual kinase activity (CDK4/CycD1; 3 µM): 4 % of control; residual kinase activity (BMPR1B; 3 µM): 45 % of control; residual kinase activity (FGFR1; 3 µM): 16 % of control; residual kinase activity (EGFR; 3 µM): 53 % of control; residual kinase activity (LIMK1; 3 µM): 1 % of control; residual kinase activity (SRC; 3 µM): 24 % of control; residual kinase activity (CDK1/CycB1; 3 µM): 1 % of control; residual kinase activity (CDK18/CycY; 3 µM): 0 % of control
COc1ccnc2[nH]cc(-c3cc(N)nc(N)c3)c12 [meriolin 16],87 % of control,1 % of control,2 % of control,75 % of control,52 % of control,23 % of control,103 % of control,62 % of control,99 % of control,105 % of control,36 % of control,91 % of control,91 % of control,90 % of control,3 % of control,86 % of control,5 % of control,5 % of control,residual kinase activity (MKK6 SDTD; 0.03 µM): 77 % of control; residual kinase activity (ROCK2; 0.03 µM): 12 % of control; residual kinase activity (DYRK1A; 0.03 µM): 11 % of control; residual kinase activity (RIPK4; 0.03 µM): 94 % of control; residual kinase activity (PHKG2; 0.03 µM): 74 % of control; residual kinase activity (CDK2/CycD1; 0.03 µM): 54 % of control; residual kinase activity (ACVR2A; 0.03 µM): 103 % of control; residual kinase activity (MKNK2; 0.03 µM): 93 % of control; residual kinase activity (SRPK1; 0.03 µM): 108 % of control; residual kinase activity (TIE2; 0.03 µM): 132 % of control; residual kinase activity (CDK4/CycD1; 0.03 µM): 86 % of control; residual kinase activity (BMPR1B; 0.03 µM): 91 % of control; residual kinase activity (FGFR1; 0.03 µM): 103 % of control; residual kinase activity (EGFR; 0.03 µM): 109 % of control; residual kinase activity (LIMK1; 0.03 µM): 10 % of control; residual kinase activity (SRC; 0.03 µM): 95 % of control; residual kinase activity (CDK1/CycB1; 0.03 µM): 29 % of control; residual kinase activity (CDK18/CycY; 0.03 µM): 36 % of control
